# Results reported in the kinase profiling compilation of Christmann-Franck et al. (2016).
# Biological target: DDR2 (human) (UniProt Q16832)
# Test: radiometric filter-binding kinase assay, Kinase HotSpot
# Details: compound 0.5 µM; ATP 10 µM
row,Structure (SMILES),residual activity [%]
1,O=c1cc(N2CCOCC2)oc2c(-c3ccccc3)cccc12,91.3
2,Cn1cc(/C=C2\C(=O)Nc3ccc(S(N)(=O)=O)cc32)c2ccccc21,100
3,COc1cccc(-c2cc(=O)c3ccccc3o2)c1N,92
4,O=C1NC(=O)c2cc(Nc3ccc(F)cc3)c(Nc3ccc(F)cc3)cc21,99.6

# Biological target: NLK (human) (UniProt Q9UBE8)
# Test: as above
# Details: compound 0.5 µM; ATP 10 µM
row,Structure (SMILES),residual activity [%]
1,O=c1cc(N2CCOCC2)oc2c(-c3ccccc3)cccc12,99.8
2,Cn1cc(/C=C2\C(=O)Nc3ccc(S(N)(=O)=O)cc32)c2ccccc21,90.4
3,COc1cccc(-c2cc(=O)c3ccccc3o2)c1N,96.4
4,O=C1NC(=O)c2cc(Nc3ccc(F)cc3)c(Nc3ccc(F)cc3)cc21,103

# Biological target: MARK2 (human) (UniProt Q7KZI7)
# Test: as above
# Details: compound 0.5 µM; ATP 10 µM
row,Structure (SMILES),residual activity [%]
1,O=c1cc(N2CCOCC2)oc2c(-c3ccccc3)cccc12,79.2
2,Cn1cc(/C=C2\C(=O)Nc3ccc(S(N)(=O)=O)cc32)c2ccccc21,45.5
3,COc1cccc(-c2cc(=O)c3ccccc3o2)c1N,84.9
4,O=C1NC(=O)c2cc(Nc3ccc(F)cc3)c(Nc3ccc(F)cc3)cc21,98.2

# Biological target: IRAK1 (human) (UniProt P51617)
# Test: as above
# Details: compound 0.5 µM; ATP 10 µM
row,Structure (SMILES),residual activity [%]
1,O=c1cc(N2CCOCC2)oc2c(-c3ccccc3)cccc12,104
2,Cn1cc(/C=C2\C(=O)Nc3ccc(S(N)(=O)=O)cc32)c2ccccc21,14.2
3,COc1cccc(-c2cc(=O)c3ccccc3o2)c1N,98.8
4,O=C1NC(=O)c2cc(Nc3ccc(F)cc3)c(Nc3ccc(F)cc3)cc21,88.5

# Biological target: AKT2 (human) (UniProt P31751)
# Test: as above
# Details: compound 0.5 µM; ATP 10 µM
row,Structure (SMILES),residual activity [%]
1,O=c1cc(N2CCOCC2)oc2c(-c3ccccc3)cccc12,94
2,Cn1cc(/C=C2\C(=O)Nc3ccc(S(N)(=O)=O)cc32)c2ccccc21,88.6
3,COc1cccc(-c2cc(=O)c3ccccc3o2)c1N,97.4
4,O=C1NC(=O)c2cc(Nc3ccc(F)cc3)c(Nc3ccc(F)cc3)cc21,95.1

# Biological target: DYRK2 (human) (UniProt Q92630)
# Sequence (Q92630 whole entry, looked up): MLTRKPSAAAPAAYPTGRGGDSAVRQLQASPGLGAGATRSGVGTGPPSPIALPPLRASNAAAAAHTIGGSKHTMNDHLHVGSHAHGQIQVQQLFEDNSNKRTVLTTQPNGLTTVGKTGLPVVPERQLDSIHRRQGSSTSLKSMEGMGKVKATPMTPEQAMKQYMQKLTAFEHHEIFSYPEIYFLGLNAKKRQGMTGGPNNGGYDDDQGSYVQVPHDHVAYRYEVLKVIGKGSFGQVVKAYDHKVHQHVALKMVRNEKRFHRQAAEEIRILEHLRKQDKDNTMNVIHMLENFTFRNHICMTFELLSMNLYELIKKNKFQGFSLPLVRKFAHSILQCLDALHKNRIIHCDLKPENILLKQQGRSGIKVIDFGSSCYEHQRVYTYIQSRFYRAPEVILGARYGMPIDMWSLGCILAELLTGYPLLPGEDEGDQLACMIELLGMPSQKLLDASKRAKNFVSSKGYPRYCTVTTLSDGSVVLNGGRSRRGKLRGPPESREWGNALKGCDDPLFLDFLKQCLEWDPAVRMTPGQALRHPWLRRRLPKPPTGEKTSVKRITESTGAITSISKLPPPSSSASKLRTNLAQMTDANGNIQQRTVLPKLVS
# Test: as above
# Details: compound 0.5 µM; ATP 10 µM
row,Structure (SMILES),residual activity [%]
1,O=c1cc(N2CCOCC2)oc2c(-c3ccccc3)cccc12,90.8
2,Cn1cc(/C=C2\C(=O)Nc3ccc(S(N)(=O)=O)cc32)c2ccccc21,85.5
3,COc1cccc(-c2cc(=O)c3ccccc3o2)c1N,92.5
4,O=C1NC(=O)c2cc(Nc3ccc(F)cc3)c(Nc3ccc(F)cc3)cc21,89.1

# Biological target: PAK3 (human) (UniProt O75914)
# Test: as above
# Details: compound 0.5 µM; ATP 10 µM
row,Structure (SMILES),residual activity [%]
1,O=c1cc(N2CCOCC2)oc2c(-c3ccccc3)cccc12,104
2,Cn1cc(/C=C2\C(=O)Nc3ccc(S(N)(=O)=O)cc32)c2ccccc21,93.8
3,COc1cccc(-c2cc(=O)c3ccccc3o2)c1N,90.7
4,O=C1NC(=O)c2cc(Nc3ccc(F)cc3)c(Nc3ccc(F)cc3)cc21,99.4

# Biological target: ERBB2 (human) (UniProt P04626)
# Test: as above
# Details: compound 0.5 µM; ATP 10 µM
row,Structure (SMILES),residual activity [%]
1,O=c1cc(N2CCOCC2)oc2c(-c3ccccc3)cccc12,104
2,Cn1cc(/C=C2\C(=O)Nc3ccc(S(N)(=O)=O)cc32)c2ccccc21,120
3,COc1cccc(-c2cc(=O)c3ccccc3o2)c1N,106
4,O=C1NC(=O)c2cc(Nc3ccc(F)cc3)c(Nc3ccc(F)cc3)cc21,107

# Biological target: CDK5 CDK5R1 p35 (human) (UniProt Q00535+Q15078)
# Test: as above
# Details: compound 0.5 µM; ATP 10 µM
row,Structure (SMILES),residual activity [%]
1,O=c1cc(N2CCOCC2)oc2c(-c3ccccc3)cccc12,107
2,Cn1cc(/C=C2\C(=O)Nc3ccc(S(N)(=O)=O)cc32)c2ccccc21,55.8
3,COc1cccc(-c2cc(=O)c3ccccc3o2)c1N,101
4,O=C1NC(=O)c2cc(Nc3ccc(F)cc3)c(Nc3ccc(F)cc3)cc21,98.5

# Biological target: NEK11 (human) (UniProt Q8NG66)
# Sequence (Q8NG66 whole entry, looked up): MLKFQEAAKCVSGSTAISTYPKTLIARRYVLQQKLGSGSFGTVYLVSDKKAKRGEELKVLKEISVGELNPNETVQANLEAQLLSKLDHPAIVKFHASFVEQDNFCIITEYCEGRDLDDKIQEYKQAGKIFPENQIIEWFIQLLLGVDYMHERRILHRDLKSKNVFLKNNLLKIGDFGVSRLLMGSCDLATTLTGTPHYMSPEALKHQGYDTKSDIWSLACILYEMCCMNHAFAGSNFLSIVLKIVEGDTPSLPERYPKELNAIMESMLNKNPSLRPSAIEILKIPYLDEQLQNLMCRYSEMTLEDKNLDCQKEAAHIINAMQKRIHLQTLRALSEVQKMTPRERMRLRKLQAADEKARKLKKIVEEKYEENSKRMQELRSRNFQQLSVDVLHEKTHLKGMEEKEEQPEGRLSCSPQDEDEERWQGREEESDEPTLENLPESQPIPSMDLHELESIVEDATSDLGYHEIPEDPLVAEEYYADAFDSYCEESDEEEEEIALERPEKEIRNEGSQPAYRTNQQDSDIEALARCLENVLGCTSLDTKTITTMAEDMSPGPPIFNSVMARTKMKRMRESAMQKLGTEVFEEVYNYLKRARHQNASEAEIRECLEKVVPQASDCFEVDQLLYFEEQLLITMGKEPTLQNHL
# Test: as above
# Details: compound 0.5 µM; ATP 10 µM
row,Structure (SMILES),residual activity [%]
1,O=c1cc(N2CCOCC2)oc2c(-c3ccccc3)cccc12,102
2,Cn1cc(/C=C2\C(=O)Nc3ccc(S(N)(=O)=O)cc32)c2ccccc21,96.1
3,COc1cccc(-c2cc(=O)c3ccccc3o2)c1N,92.9
4,O=C1NC(=O)c2cc(Nc3ccc(F)cc3)c(Nc3ccc(F)cc3)cc21,103

# Biological target: LRRK2 (human) (UniProt Q5S007)
# Test: as above
# Details: compound 0.5 µM; ATP 10 µM
row,Structure (SMILES),residual activity [%]
1,O=c1cc(N2CCOCC2)oc2c(-c3ccccc3)cccc12,96.9
2,Cn1cc(/C=C2\C(=O)Nc3ccc(S(N)(=O)=O)cc32)c2ccccc21,9.76
3,COc1cccc(-c2cc(=O)c3ccccc3o2)c1N,101
4,O=C1NC(=O)c2cc(Nc3ccc(F)cc3)c(Nc3ccc(F)cc3)cc21,99.8

# Biological target: CDC42BPB (human) (UniProt Q9Y5S2)
# Test: as above
# Details: compound 0.5 µM; ATP 10 µM
row,Structure (SMILES),residual activity [%]
1,O=c1cc(N2CCOCC2)oc2c(-c3ccccc3)cccc12,88.4
2,Cn1cc(/C=C2\C(=O)Nc3ccc(S(N)(=O)=O)cc32)c2ccccc21,114
3,COc1cccc(-c2cc(=O)c3ccccc3o2)c1N,94.8
4,O=C1NC(=O)c2cc(Nc3ccc(F)cc3)c(Nc3ccc(F)cc3)cc21,100

# Biological target: RET (human) (UniProt P07949)
# Sequence (P07949 whole entry, looked up): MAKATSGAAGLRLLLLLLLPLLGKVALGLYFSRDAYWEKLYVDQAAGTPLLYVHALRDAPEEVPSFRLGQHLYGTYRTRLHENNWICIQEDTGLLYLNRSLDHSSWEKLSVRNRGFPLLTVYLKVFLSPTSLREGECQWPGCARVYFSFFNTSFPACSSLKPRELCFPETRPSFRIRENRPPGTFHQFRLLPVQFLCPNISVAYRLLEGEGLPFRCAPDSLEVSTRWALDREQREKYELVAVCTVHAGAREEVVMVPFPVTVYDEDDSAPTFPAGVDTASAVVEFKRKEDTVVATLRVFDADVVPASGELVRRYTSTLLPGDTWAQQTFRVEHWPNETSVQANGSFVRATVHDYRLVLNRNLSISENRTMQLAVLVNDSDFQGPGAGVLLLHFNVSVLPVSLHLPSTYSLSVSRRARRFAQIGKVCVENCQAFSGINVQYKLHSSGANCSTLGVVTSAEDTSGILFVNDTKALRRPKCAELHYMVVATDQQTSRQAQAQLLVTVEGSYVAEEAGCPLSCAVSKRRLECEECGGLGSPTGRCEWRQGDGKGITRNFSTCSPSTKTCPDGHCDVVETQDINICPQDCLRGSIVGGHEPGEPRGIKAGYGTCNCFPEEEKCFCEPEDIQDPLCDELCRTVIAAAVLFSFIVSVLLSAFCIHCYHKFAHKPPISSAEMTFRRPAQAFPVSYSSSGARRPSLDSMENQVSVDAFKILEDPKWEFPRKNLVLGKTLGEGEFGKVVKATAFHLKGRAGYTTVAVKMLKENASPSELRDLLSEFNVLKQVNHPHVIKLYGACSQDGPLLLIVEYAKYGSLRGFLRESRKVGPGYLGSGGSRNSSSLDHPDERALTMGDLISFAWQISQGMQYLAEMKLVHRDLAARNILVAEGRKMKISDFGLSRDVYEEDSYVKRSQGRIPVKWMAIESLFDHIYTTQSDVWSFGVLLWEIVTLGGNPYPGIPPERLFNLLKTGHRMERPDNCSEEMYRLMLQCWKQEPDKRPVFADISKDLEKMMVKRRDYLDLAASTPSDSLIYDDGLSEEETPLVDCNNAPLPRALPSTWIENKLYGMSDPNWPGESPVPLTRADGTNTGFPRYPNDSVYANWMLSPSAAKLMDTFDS
# Test: as above
# Details: compound 0.5 µM; ATP 10 µM
row,Structure (SMILES),residual activity [%]
1,O=c1cc(N2CCOCC2)oc2c(-c3ccccc3)cccc12,99.2
2,Cn1cc(/C=C2\C(=O)Nc3ccc(S(N)(=O)=O)cc32)c2ccccc21,1.93
3,COc1cccc(-c2cc(=O)c3ccccc3o2)c1N,107
4,O=C1NC(=O)c2cc(Nc3ccc(F)cc3)c(Nc3ccc(F)cc3)cc21,104

# Biological target: NTRK3 (human) (UniProt Q16288)
# Test: as above
# Details: compound 0.5 µM; ATP 10 µM
row,Structure (SMILES),residual activity [%]
1,O=c1cc(N2CCOCC2)oc2c(-c3ccccc3)cccc12,95.9
2,Cn1cc(/C=C2\C(=O)Nc3ccc(S(N)(=O)=O)cc32)c2ccccc21,1.18
3,COc1cccc(-c2cc(=O)c3ccccc3o2)c1N,99.3
4,O=C1NC(=O)c2cc(Nc3ccc(F)cc3)c(Nc3ccc(F)cc3)cc21,95.6

# Biological target: MAP3K2 (human) (UniProt Q9Y2U5)
# Test: as above
# Details: compound 0.5 µM; ATP 10 µM
row,Structure (SMILES),residual activity [%]
1,O=c1cc(N2CCOCC2)oc2c(-c3ccccc3)cccc12,101
2,Cn1cc(/C=C2\C(=O)Nc3ccc(S(N)(=O)=O)cc32)c2ccccc21,92.1
3,COc1cccc(-c2cc(=O)c3ccccc3o2)c1N,103
4,O=C1NC(=O)c2cc(Nc3ccc(F)cc3)c(Nc3ccc(F)cc3)cc21,94.8

# Biological target: PDGFRA (human) (UniProt P16234)
# Test: as above
# Details: compound 0.5 µM; ATP 10 µM
row,Structure (SMILES),residual activity [%]
1,O=c1cc(N2CCOCC2)oc2c(-c3ccccc3)cccc12,94.6
2,Cn1cc(/C=C2\C(=O)Nc3ccc(S(N)(=O)=O)cc32)c2ccccc21,81
3,COc1cccc(-c2cc(=O)c3ccccc3o2)c1N,103
4,O=C1NC(=O)c2cc(Nc3ccc(F)cc3)c(Nc3ccc(F)cc3)cc21,101

# Biological target: PHKG1 (human) (UniProt Q16816)
# Sequence (Q16816 whole entry, looked up): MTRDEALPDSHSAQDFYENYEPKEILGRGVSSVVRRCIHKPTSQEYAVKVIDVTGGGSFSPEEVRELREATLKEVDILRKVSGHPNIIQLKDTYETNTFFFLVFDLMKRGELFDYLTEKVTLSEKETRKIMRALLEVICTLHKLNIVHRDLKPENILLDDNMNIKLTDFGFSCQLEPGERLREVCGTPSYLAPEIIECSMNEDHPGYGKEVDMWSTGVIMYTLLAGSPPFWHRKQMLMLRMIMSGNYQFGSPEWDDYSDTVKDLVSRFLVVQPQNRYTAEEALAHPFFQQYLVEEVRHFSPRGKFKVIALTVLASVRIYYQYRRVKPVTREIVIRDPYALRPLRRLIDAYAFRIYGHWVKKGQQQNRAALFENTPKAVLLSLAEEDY
# Test: as above
# Details: compound 0.5 µM; ATP 10 µM
row,Structure (SMILES),residual activity [%]
1,O=c1cc(N2CCOCC2)oc2c(-c3ccccc3)cccc12,90.1
2,Cn1cc(/C=C2\C(=O)Nc3ccc(S(N)(=O)=O)cc32)c2ccccc21,20.6
3,COc1cccc(-c2cc(=O)c3ccccc3o2)c1N,92.9
4,O=C1NC(=O)c2cc(Nc3ccc(F)cc3)c(Nc3ccc(F)cc3)cc21,94.8

# Biological target: ULK2 (human) (UniProt Q8IYT8)
# Sequence (Q8IYT8 whole entry, looked up): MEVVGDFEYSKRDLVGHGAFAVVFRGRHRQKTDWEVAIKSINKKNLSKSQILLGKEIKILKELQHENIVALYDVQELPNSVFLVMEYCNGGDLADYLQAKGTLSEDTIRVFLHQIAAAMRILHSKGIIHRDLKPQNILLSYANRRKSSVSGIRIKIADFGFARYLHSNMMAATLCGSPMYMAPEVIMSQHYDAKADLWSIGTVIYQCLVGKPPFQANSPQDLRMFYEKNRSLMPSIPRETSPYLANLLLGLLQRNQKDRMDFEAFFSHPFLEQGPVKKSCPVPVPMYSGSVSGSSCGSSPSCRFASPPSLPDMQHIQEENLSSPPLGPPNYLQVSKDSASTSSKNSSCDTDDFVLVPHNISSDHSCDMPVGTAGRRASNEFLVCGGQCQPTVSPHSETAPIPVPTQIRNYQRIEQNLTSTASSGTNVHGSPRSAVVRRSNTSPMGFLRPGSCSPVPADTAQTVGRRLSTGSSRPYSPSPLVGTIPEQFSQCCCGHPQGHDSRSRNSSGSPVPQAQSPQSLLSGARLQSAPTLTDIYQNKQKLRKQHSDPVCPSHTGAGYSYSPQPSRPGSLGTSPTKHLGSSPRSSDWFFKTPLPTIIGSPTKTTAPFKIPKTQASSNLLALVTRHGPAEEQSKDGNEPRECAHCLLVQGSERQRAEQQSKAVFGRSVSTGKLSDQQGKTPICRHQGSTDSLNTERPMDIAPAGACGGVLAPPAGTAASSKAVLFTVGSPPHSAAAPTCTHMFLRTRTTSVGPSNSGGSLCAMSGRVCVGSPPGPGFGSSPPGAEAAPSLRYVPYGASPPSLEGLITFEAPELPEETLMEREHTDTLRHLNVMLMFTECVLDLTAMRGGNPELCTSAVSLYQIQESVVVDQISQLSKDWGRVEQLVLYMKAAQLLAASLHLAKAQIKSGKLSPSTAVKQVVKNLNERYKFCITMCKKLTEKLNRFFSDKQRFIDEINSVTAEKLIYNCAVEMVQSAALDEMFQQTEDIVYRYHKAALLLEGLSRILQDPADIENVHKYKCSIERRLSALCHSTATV
# Test: as above
# Details: compound 0.5 µM; ATP 10 µM
row,Structure (SMILES),residual activity [%]
1,O=c1cc(N2CCOCC2)oc2c(-c3ccccc3)cccc12,113
2,Cn1cc(/C=C2\C(=O)Nc3ccc(S(N)(=O)=O)cc32)c2ccccc21,72.3
3,COc1cccc(-c2cc(=O)c3ccccc3o2)c1N,109
4,O=C1NC(=O)c2cc(Nc3ccc(F)cc3)c(Nc3ccc(F)cc3)cc21,84.7

# Biological target: STK10 (human) (UniProt O94804)
# Sequence (O94804 whole entry, looked up): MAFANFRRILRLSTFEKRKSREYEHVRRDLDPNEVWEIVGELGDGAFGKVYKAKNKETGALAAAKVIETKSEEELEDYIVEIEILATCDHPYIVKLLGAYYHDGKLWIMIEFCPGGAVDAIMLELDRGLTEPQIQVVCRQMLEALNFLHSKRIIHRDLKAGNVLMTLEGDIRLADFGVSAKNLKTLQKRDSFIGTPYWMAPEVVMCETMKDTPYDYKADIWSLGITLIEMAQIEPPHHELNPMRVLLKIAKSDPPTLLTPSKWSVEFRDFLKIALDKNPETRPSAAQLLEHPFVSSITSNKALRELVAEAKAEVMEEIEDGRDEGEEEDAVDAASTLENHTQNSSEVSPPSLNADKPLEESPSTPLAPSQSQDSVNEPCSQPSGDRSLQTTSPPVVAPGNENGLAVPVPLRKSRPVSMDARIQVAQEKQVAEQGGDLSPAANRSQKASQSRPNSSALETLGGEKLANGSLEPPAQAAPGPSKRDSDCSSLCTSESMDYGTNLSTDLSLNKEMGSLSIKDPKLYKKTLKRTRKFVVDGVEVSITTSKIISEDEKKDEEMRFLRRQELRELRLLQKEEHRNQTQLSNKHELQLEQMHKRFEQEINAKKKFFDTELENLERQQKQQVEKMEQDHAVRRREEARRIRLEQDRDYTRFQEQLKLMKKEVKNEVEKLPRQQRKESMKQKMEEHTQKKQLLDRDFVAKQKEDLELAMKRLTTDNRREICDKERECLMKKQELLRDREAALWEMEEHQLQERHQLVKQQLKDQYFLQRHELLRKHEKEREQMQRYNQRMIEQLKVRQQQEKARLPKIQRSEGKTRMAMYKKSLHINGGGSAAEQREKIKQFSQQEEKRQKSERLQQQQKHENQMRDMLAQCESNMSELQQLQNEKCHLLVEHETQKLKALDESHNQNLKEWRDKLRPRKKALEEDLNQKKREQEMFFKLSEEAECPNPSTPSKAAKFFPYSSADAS
# Test: as above
# Details: compound 0.5 µM; ATP 10 µM
row,Structure (SMILES),residual activity [%]
1,O=c1cc(N2CCOCC2)oc2c(-c3ccccc3)cccc12,97.1
2,Cn1cc(/C=C2\C(=O)Nc3ccc(S(N)(=O)=O)cc32)c2ccccc21,17
3,COc1cccc(-c2cc(=O)c3ccccc3o2)c1N,90.4
4,O=C1NC(=O)c2cc(Nc3ccc(F)cc3)c(Nc3ccc(F)cc3)cc21,79.2

# Biological target: PLK2 (human) (UniProt Q9NYY3)
# Test: as above
# Details: compound 0.5 µM; ATP 10 µM
row,Structure (SMILES),residual activity [%]
1,O=c1cc(N2CCOCC2)oc2c(-c3ccccc3)cccc12,98.9
2,Cn1cc(/C=C2\C(=O)Nc3ccc(S(N)(=O)=O)cc32)c2ccccc21,104
3,COc1cccc(-c2cc(=O)c3ccccc3o2)c1N,92.5
4,O=C1NC(=O)c2cc(Nc3ccc(F)cc3)c(Nc3ccc(F)cc3)cc21,99.6

# Biological target: CSNK2A1 (human) (UniProt P68400)
# Test: as above
# Details: compound 0.5 µM; ATP 10 µM
row,Structure (SMILES),residual activity [%]
1,O=c1cc(N2CCOCC2)oc2c(-c3ccccc3)cccc12,64.8
2,Cn1cc(/C=C2\C(=O)Nc3ccc(S(N)(=O)=O)cc32)c2ccccc21,84.7
3,COc1cccc(-c2cc(=O)c3ccccc3o2)c1N,94.9
4,O=C1NC(=O)c2cc(Nc3ccc(F)cc3)c(Nc3ccc(F)cc3)cc21,95.7
